Reference: patent US20240116856A1 (Young BioPharma, LLC, priority 2020, published 2024)

Assays:
Mouse plasma stability = settings: C57BL6 mouse plasma; 2 μM (YB-2), 5 μM (controls)
[1] = tested on: Src protein activation in MDA-MB-231 cells; assay: Cancer cell immunocytochemistry assay, Phospho-Src (Y416), MDA-MB-231; type: cell-based, human
Procedure: (§1) Human cancer cells (15,000 cells/well) in 96 well half area microplate (Cat #3882, Corning) were incubated overnight at 37° C., then compounds or DMSO control were added to the cell culture and incubated at 37° C. for 1-6 h. The cells were sequentially fixed with 4% formalin, permeabilized with 0.5% Triton X-100, blocked with 5% BSA in PBS, incubated with Human Phospho-Src (Y416) Antibody (Cat #MAB2685, R&D Systems) at rt for 2 h, incubated with the secondary antibody Goat Ant-Rabbit IgG H&L (Alexa Fluor 488) (Cat #ab150077, abeam) for 45 min, and incubated with DAPI (Cat #D9542, Sigma-Aldrich) for 5 min. Finally, the cells were washed and covered with PBS. The cell images were visualized on an inverted fluorescence microscope (Leica DMIL Fluorescent Inverted Microscope with Digital Camera, Leica Microsystems). Pictures were taken [FIGS. 14A-C. Green: Human Phospho-Src (Y416), the activated form of the Src protein; Blue: DAPI (stain nucleus of cell)]. The fluorescence intensity values from 5 random cells were averaged, subtracted by the background value (area between cells) and the blank value [the blank control without the Human Phospho-Src (Y416) Antibody], then plotted as percentage against the DMSO control to indicate the effects of compound treatment on the cellular Src kinase phosphorylation levels in the cancer cells (FIGS. 15A-D).

OVCAR-8 ovarian tumor = assay: OVCAR-8 intraperitoneal xenograft in athymic nude mice; type: in vivo
Procedure: OVCAR-8 cells expressing red fluorescent protein were xenografted intraperitoneally in athymic nude mice to form tumors (Mol Cancer Ther 2020, 19, 89). After 4 weeks, mice were dosed with YB-1 or vehicle control (10% N-Methylpyrrolidone-72% PEG400—18% water) for 2 weeks (dosage: 5 mg/kg; ip treatment twice per week). As shown in FIGS. 16A-B, compared to vehicle group, animals treated with YB-1 for 2 weeks had 40% less tumor burden based on average radiant efficiency measured with IVIS and reduced approximately half of the body weight loss (7% average body weight loss for YB-1 treatment group vs. 13% average body weight loss for vehicle group).

[2] = tested on: Src protein activation in OVCAR-8 cells; assay: Cancer cell immunocytochemistry assay, Phospho-Src (Y416), OVCAR-8; type: cell-based, human
Procedure: as §1

MDA-MB-231 cell invasion = assay: Cancer cell invasion assay, MDA-MB-231; type: cell-based, human; settings: for inhibition of MDA-MB-231 cell invasion: 24 h
Procedure: (§2) A cancer cell invasion assay was developed based on literature protocols (Methods 2005, 37, 208; EMBO J 2002, 21, 6289; Cellular Signalling 2012, 24, 1276.). Membrane matrix gel (Cat #A1413201, ThermoFisher) was diluted in ice-cold, serum-free RPMI 1640 Medium (Cat #31800022, ThermoFisher) at a concentration of 0.5-0.6 mg/mL. Then it was added to the upper compartment (100 μL per cup) of millicell inserts (Cat #PI8P01250, ThermoFisher) placed in a 24-well plate (Part no. 229123, Celltreat). The plate was incubated at 37° C. for 2 h to allow the liquid gel to solidify. RPMI 1640 Medium supplemented with 10% FBS (300 μL) was added to the well of the plate (lower compartment) as attractant, then DMSO or compounds were added. Human cancer cells (1×10^5 cells in 200 μL of RPMI 1640 Medium) were added to the upper compartment of the insert, then DMSO or compounds were added. After the plate was incubated at 37° C. for 24 h, the cells were fixed on the lower side of the insert membrane with 4% formaldehyde and stained with 1% crystal violet (Part no. IS12146, Innovating Science). The invaded cells on the lower side of the filter were counted under an inverted microscope equipped with either a 4× or a 10× objective (FIG. 11). The cell numbers from 5 random views were averaged and plotted as percentage against the DMSO control (FIG. 12A).

MDA-MB-231 = assay: Human cancer cell growth inhibition assay (ATP assay), MDA-MB-231; type: cell-based; settings: for IC50: Homo sapiens, MDA-MB-231, 96 h, 4 days, Means±SEM from three independent experiments, read-out: MDA-MB-231, IC50
NCI-H460 = assay: Human cancer cell growth inhibition assay (ATP assay), NCI-H460; type: cell-based; settings: for IC50: Homo sapiens, NCI-H460, 96 h, 4 days, Means±SEM from three independent experiments, read-out: NCl-H460, IC50
OVCAR-8 cell invasion = assay: Cancer cell invasion assay, OVCAR-8; type: cell-based, human
Procedure: as §2

[3] = tested on: Src protein activation in NCI-H460 cells; assay: Cancer cell immunocytochemistry assay, Phospho-Src (Y416), NCI-H460; type: cell-based, human
Procedure: as §1

human TRPA1 = target: T1, human TRPA1 (Homo sapiens, UniProt O75762); assay: In vitro Ca2+ flux counter-screen in human TRPA1 overexpressing cells; type: cell-based; settings: counter-screen; read-out: TRPA1 EC50
T1 construct: expressed in transfected cells; host or cells: overexpressing cells
T1 sequence (O75762 whole entry): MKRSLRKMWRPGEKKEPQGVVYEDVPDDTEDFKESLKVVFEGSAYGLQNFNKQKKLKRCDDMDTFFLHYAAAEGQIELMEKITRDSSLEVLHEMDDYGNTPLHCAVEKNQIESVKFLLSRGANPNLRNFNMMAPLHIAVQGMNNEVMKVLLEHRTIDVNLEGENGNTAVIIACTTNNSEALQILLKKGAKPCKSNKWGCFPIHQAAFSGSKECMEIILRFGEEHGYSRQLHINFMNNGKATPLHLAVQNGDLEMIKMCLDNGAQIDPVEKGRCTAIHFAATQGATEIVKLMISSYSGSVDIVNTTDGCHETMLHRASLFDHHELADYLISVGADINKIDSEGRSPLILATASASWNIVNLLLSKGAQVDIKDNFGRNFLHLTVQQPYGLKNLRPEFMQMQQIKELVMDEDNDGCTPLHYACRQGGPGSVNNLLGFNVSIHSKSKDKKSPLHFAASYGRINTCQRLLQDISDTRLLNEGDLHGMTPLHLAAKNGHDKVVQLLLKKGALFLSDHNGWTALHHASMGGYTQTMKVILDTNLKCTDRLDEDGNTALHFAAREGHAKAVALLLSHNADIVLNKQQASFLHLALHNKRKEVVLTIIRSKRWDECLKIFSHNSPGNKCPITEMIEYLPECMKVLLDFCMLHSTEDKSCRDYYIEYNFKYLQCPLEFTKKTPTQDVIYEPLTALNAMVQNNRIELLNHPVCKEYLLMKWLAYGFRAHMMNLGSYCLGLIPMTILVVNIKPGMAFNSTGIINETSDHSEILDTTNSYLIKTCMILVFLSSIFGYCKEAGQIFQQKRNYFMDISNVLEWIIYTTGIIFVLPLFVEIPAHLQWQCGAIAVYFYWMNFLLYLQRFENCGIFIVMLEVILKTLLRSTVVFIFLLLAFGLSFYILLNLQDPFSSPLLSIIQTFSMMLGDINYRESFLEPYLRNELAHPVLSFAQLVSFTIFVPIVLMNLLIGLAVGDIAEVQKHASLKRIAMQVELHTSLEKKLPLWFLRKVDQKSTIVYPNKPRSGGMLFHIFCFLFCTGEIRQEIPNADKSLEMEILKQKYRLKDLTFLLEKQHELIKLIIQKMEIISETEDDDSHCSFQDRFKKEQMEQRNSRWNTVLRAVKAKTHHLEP

NCI-H460 cell invasion = assay: Cancer cell invasion assay, NCI-H460; type: cell-based, human; settings: for inhibition of NCI-H460 cell invasion: 24 h
Procedure: as §2

human TRPV3 = target: T2, human TRPV3 (Homo sapiens, UniProt Q8NET8); assay: In vitro Ca2+ flux counter-screen in human TRPV3 overexpressing cells; type: cell-based; settings: counter-screen; read-out: TRPV3 EC50
T2 construct: expressed in transfected cells; host or cells: overexpressing cells
T2 sequence (Q8NET8 1-790): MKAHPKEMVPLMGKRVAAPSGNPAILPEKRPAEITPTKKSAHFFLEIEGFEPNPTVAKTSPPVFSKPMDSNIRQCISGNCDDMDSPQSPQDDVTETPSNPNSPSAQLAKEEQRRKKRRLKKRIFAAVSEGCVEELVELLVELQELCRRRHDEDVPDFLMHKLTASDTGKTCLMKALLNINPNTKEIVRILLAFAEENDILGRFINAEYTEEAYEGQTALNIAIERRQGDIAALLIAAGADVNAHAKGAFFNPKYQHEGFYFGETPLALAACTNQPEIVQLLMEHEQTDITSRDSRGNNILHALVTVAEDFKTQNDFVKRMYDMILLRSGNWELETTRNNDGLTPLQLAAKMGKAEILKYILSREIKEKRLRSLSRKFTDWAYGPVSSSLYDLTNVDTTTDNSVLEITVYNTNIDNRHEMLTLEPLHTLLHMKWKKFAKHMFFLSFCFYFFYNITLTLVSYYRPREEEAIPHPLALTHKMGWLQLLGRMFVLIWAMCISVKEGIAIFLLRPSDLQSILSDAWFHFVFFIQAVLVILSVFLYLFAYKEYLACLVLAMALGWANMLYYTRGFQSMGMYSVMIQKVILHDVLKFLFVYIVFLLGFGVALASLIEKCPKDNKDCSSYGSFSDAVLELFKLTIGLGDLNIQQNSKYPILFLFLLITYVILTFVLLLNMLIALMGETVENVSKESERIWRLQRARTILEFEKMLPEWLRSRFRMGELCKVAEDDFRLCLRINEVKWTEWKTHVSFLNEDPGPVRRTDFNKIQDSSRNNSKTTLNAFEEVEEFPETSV

OVCAR-8 = assay: Human cancer cell growth inhibition assay (ATP assay), OVCAR-8; type: cell-based; settings: for IC50: Homo sapiens, OVCAR-8, 96 h, 4 days, Means±SEM from three independent experiments, read-out: OVCAR-8, IC50
[4] = YB-1 15 μM, capsaicin 50 μM, 1-6 h
[5] = 5 mg/kg ip twice per week for 2 weeks
[6] = at about 40% of IC50 concentration from cell growth inhibition assay, 4 h

SMILES	% Remaining at T120 (Mouse plasma stability) [%]	T1/2 (Mouse plasma stability) [min]	inhibition of MDA-MB-231 cell invasion (MDA-MB-231 cell invasion)	IC50 (MDA-MB-231) [µM]	IC50 (NCI-H460) [µM]	EC50 (human TRPA1) [µM]	inhibition of NCI-H460 cell invasion (NCI-H460 cell invasion)	EC50 (human TRPV3) [µM]	IC50 (OVCAR-8) [µM]	cellular Src kinase phosphorylation levels [1, 6]	other results
CC[C@H](C)C(=O)O[C@H]1C[C@@H](C)C=C2C=C[C@H](C)[C@H](CC[C@@H]3C[C@@H](O)CC(=O)O3)[C@H]21 [Lovastatin]	0.2	12									
CC(C)[N+](C)(CCOC(=O)C1c2ccccc2Oc2ccccc21)C(C)C [Propantheline]	20	55									
COc1cc(CNC(=O)CCCC/C=C/C(C)C)ccc1NC(=O)CCCC/C=C/C(C)C [YB-1]			dose-dependently inhibited	38	11	> 10	dose-dependently inhibited	> 10	38		potency in inhibiting Src protein activation compared to capsaicin [1]: at least 3 fold; cellular Src kinase phosphorylation levels [1, 4]: time-dependently reduced the cellular Src kinase phosphorylation levels; average body weight loss (OVCAR-8 ovarian tumor; [5]): 7%; less tumor burden compared to vehicle group (average radiant efficiency, IVIS) (OVCAR-8 ovarian tumor; [5]): 40%; tumor burden in vivo (OVCAR-8 ovarian tumor; FIG. 16): reduces tumor burden in vivo; potency in inhibiting Src protein activation compared to capsaicin [2]: at least 3 fold; cellular Src kinase phosphorylation levels [2, 4]: time-dependently reduced the cellular Src kinase phosphorylation levels; potency in inhibiting cell invasion compared to capsaicin (MDA-MB-231 cell invasion; MDA-MB-231): about 4 fold; potency in growth inhibition compared to capsaicin (MDA-MB-231; MDA-MB-231 cell line): 10 fold; potency in growth inhibition compared to capsaicin (NCI-H460; NCI-H460 cell line): 18 fold; inhibition of OVCAR-8 cell invasion (OVCAR-8 cell invasion; 24 h): dose-dependently inhibited; potency in inhibiting cell invasion compared to capsaicin (OVCAR-8 cell invasion; OVCAR-8): ~3 fold; potency in inhibiting Src protein activation compared to capsaicin [3]: at least 3 fold; cellular Src kinase phosphorylation levels [3, 4]: time-dependently reduced the cellular Src kinase phosphorylation levels; potency in inhibiting cell invasion compared to capsaicin (NCI-H460 cell invasion; NCI-H460): ~10 fold; potency in growth inhibition compared to capsaicin (OVCAR-8; OVACR-8 cell line): 6 fold
COc1cc(CNC(=O)CCCC/C=C/C(C)C)ccc1NC(C)=O [YB-9]			dose-dependently inhibited	75 ± 20	65 ± 15	> 10	dose-dependently inhibited the NCI-H460 cell invasion from 15 μM to 60 μM	> 10	34 ± 12	significantly reduced the cellular Src kinase phosphorylation levels	
COc1cc(CC(=O)N/C=C/c2cc(C(F)(F)F)cc(C(F)(F)F)c2)ccc1O [YB-22]			dose-dependently inhibited	74	84 ± 12	> 10		> 10	58	significantly reduced the cellular Src kinase phosphorylation levels	
COc1cc(CC(=O)N/C=C/c2ccc(C#N)cc2)ccc1O [YB-23]			dose-dependently inhibited	90 ± 12	88	> 10		> 10	73	significantly reduced the cellular Src kinase phosphorylation levels	
